Values joined by “and” are separate entries in the source; they are usually repeats but may differ in a detail not shown here. Equal entries are not always repeated.
What was measured:
[1] = cited from earlier work
DIO mice = assay: 28-day study in DIO mice: body weight, blood glucose, food intake; type: in vivo; details: for weight loss: after 28 days
Description: To further characterize and understand the efficacy of the fusion proteins, body weight and metabolic parameters were measured throughout a 28-day study in DIO mice (Beijing Vital River Laboratory Animal Technology Co., Ltd.).
The effects of all fusion proteins on blood glucose reduction and food intake were determined in the DIO mice described above (FIG. 7A and FIG. 7B). All mice are bled after fasting for 6 hours to measure blood glucose twice weekly.

C57BL mice = assay: Intraperitoneal glucose tolerance test (IPGTT) after single SC injection; type: in vivo; details: for glucose-lowering effect (IPGTT): single SC, P19 15 nmol/kg, P28 10 or 30 nmol/kg (FIG. 5 legend); for glucose reduction (IPGTT): single SC 100 or 300 nmol/kg
Description: The effect of the fusion proteins on glucose tolerance was determined in C57BL mice (Beijing Vital River Laboratory Animal Technology Co., Ltd.). Each group (6 mice per group) received a single subcutaneous injection of PBS vehicle control, dulaglutide (TRULICITY® brand) (Vetter Pharma-Fertigung GmbH & Co. […] Intraperitoneal glucose tolerance tests (IPGTT) were performed on Day 1, 7, 14, 21, up to 28 after 6 hours fasting with tail vein blood glucose measurements at 0, 15, 30, 60, and 120 minutes.

Compound	half-life in mice [1]	weight loss (DIO mice; 30 nmol/kg twice weekly)	decrease in body weight compared with dulaglutide (DIO mice; twice weekly)	glucose-lowering effect (IPGTT) (C57BL mice; Day 1)	glucose-lowering effect (IPGTT) (C57BL mice; Day 7)	weight loss (DIO mice; 10 nmol/kg twice weekly)	glucose reduction (IPGTT) (C57BL mice; Day 1)	glucose reduction (IPGTT) (C57BL mice; Day 7 and 14)	glucose reduction (IPGTT) (C57BL mice; Day 21)
CC[C@H](C)[C@H](NC(=O)[C@H](CC(C)C)NC(=O)[C@H](Cc1c[nH]c2ccccc12)NC(=O)[C@H](CCC(N)=O)NC(=O)[C@@H](NC(=O)[C@H](Cc1ccccc1)NC(=O)[C@H](C)NC(=O)[C@H](CCCCNC(=O)COCCOCCNC(=O)COCCOCCNC(=O)CC[C@H](NC(=O)CCCCCCCCCCCCCCCCCCC(=O)O)C(=O)O)NC(=O)[C@H](CCC(N)=O)NC(=O)[C@H](C)NC(=O)[C@@H](NC(=O)[C@H](CCCCN)NC(=O)[C@H](CC(=O)O)NC(=O)[C@H](CC(C)C)NC(=O)C(C)(C)NC(=O)[C@@H](NC(=O)[C@H](CO)NC(=O)[C@H](Cc1ccc(O)cc1)NC(=O)[C@H](CC(=O)O)NC(=O)[C@H](CO)NC(=O)[C@@H](NC(=O)[C@H](Cc1ccccc1)NC(=O)[C@@H](NC(=O)CNC(=O)[C@H](CCC(=O)O)NC(=O)C(C)(C)NC(=O)[C@@H](N)Cc1ccc(O)cc1)[C@@H](C)O)[C@@H](C)O)[C@@H](C)CC)[C@@H](C)CC)C(C)C)C(=O)N[C@@H](C)C(=O)NCC(=O)NCC(=O)N1CCC[C@H]1C(=O)N[C@@H](CO)C(=O)N[C@@H](CO)C(=O)NCC(=O)N[C@@H](C)C(=O)N1CCC[C@H]1C(=O)N1CCC[C@H]1C(=O)N1CCC[C@H]1C(=O)N[C@@H](CO)C(N)=O [P19, Tirzepatide, reference compound]	less than one day	26%	more significant dose-dependent decrease in body weight	showed glucose-lowering effects	lost all effects				
dulaglutide [reference compound]		16.6%				10.9% and 11%	very strong glucose reduction	rapidly waned	completely lost effect

— patent US20250270274A1, “SUPER LONG-LASTING GLP1 OR GLP1/GIP ANALOGUE DRUG FOR TYPE-2 DIABETES AND OBESITY” (Serpentide Inc., priority 2024, published 2025)
